Assay results published in patent publication US20100075935A1, “XANTHINE MODULATORS OF ADENOSINE A1 RECEPTOR” (Auspex Pharmaceuticals, Inc., priority 2008, published 2010).

Assays:
[1] = In vitro liver microsomal stability assay; assay type: in vitro ADME; details: human liver microsomes 0.5 mg/mL, 1 μM compound, 37° C., NADPH-generating system, compared with non isotopically enriched rolofylline, '+' marks one bin of −25%-0%, 0%-50%, 50%-150%
Protocol: Liver microsomal stability assays were conducted at 0.5 mg per mL liver microsome protein with an NADPH-generating system in 2% NaHCO3 (2.2 mM NADPH, 25.6 mM glucose 6-phosphate, 6 units per mL glucose 6-phosphate dehydrogenase and 3.3 mM MgCl2). Test compounds were prepared as solutions in 20% acetonitrile-water and added to the assay mixture (final assay concentration 1 μM) and incubated at 37° C. Final concentration of acetonitrile in the assay should be <1%. […] were taken out at times 0, 7.5, 15, 22.5, 30 minutes, and diluted with ice cold acetonitrile (200 μL) to stop the reactions. Samples were centrifuged at 12,000 RPM for 10 min to precipitate proteins. Supernatants were transferred to micro centrifuge tubes and stored for LC/MS/MS analysis of the degradation half-life of the test compounds. […] The degradation half-lives of Examples 1 through 4 (isotopically enriched compounds) as compared with non isotopically enriched rolofylline are shown in Table 1.

[2] = tested on: acute heart failure patients; details: cited from earlier work
[3] = rolofylline 30 mg daily for 3 days

SMILES: [2H]C([2H])([2H])C([2H])([2H])C([2H])([2H])n1c(=O)n(CCC)c(=O)c2[nH]c(C34CC5CC(CC3C5)C4)nc21 [Example 1, 8-(Noradamantyl)-1-propyl-3-(d7-propyl)-3,7-dihydro-purine-2,6-dione]
- % increase of HLM degradation half-life [1]: + (−25%-0%)

SMILES: [2H]C([2H])([2H])C([2H])([2H])C([2H])([2H])n1c(=O)c2[nH]c(C34CC5CC(CC3C5)C4)nc2n(C([2H])([2H])C([2H])([2H])C([2H])([2H])[2H])c1=O [Example 2, 8-(Noradamantyl)-1-(d7-propyl)-3-(d7-propyl)-3,7-dihydro-purine-2,6-dione]
- % increase of HLM degradation half-life [1]: + (−25%-0%)

SMILES: [2H]C([2H])(CC)n1c(=O)c2[nH]c(C34CC5CC(CC3C5)C4)nc2n(CCC)c1=O [Example 3, 8-(Noradamantyl)-1-(1,1-d2-propyl)-3-propyl-3,7-dihydro-purine-2,6-dione]
- % increase of HLM degradation half-life [1]: + (−25%-0%)

SMILES: [2H]C([2H])([2H])C([2H])([2H])C([2H])([2H])n1c(=O)c2[nH]c(C34CC5CC(CC3C5)C4)nc2n(CCC)c1=O [Example 4, 8-(Noradamantyl)-1-(d7-propyl)-3-propyl-3,7-dihydro-purine-2,6-dione]
- % increase of HLM degradation half-life [1]: + (−25%-0%)

SMILES: CCCn1c(=O)c2[nH]c(C34CC5CC(CC3C5)C4)nc2n(CCC)c1=O [Rolofylline, 8-(hexahydro-2,5-methano-pentalen-3a-yl)-1,3-dipropyl-3,7-dihydro-purine-2,6-dione]
- urine output at 6 hours ([2]; acute heart failure patients, 6 hours): increased urine output at 6 hours
- overall urine output over 24 hours ([2]; acute heart failure patients, 24 hours): did not increase overall urine output over 24 hours
- patients with persistent renal impairment ([2]; rolofylline 30 mg daily for 3 days, acute heart failure patients): 8%
- dyspnea improvement versus placebo [2, 3]: superior to placebo
- instances of death, heart failure readmission, worsening heart failure or persistent renal impairment versus placebo [2, 3]: less instances
